Reference: patent EP0046337A2, “Triazole compounds, a process for preparing them, their use as plant and pharmaceutical fungicides and as plant growth regulators and compositions containing them” (IMPERIAL CHEMICAL INDUSTRIES PLC, priority 1980, dated 1982)

Legend:
Format in all cases: in vivo
[1] = system: VENTURIA INEQUALIS (APPLE); assay: Foliar fungal disease test on plants: Venturia inaequalis on apple; conditions: 100 ppm active ingredient, named as an exception to the usual way of application, treatment one or two days before inoculation
Method: (§1) The compounds were tested against a variety of foliar fungal diseases of plants. The technique employed was as follows. The plants were grown in John Innes Potting Compost (No 1 or 2) in 4 cm diameter minipots. A layer of fine sand was placed at the bottom of the pots containing the dicotyledonous plants to facilitate uptake of test compound by the roots. The test compounds were formulated either by bead milling with aqueous Dispersol T or as a solution in acetone or acetone/ethanol which was diluted to the required concentration immediately before use. For the foliage diseases, suspensions (100 ppm active ingredient) were sprayed […]. Exceptions to this were the tests on Botrytis cinerea and Venturia inaequalis. The sprays were applied to maximum retention and the root drenches to a final concentration equivalent to approximately 40 ppm a.i./dry soil. Tween 20, to give a final concentration of 0.05%, was added when the sprays were applied to cereals. For most of the tests the compound was applied to the soil (roots) and to the foliage (by spraying) one or two days before the plant was inoculated with the diseases. An exception was the test on Erysiphe graminis in which the plants were inoculated 24 hours before treatment. After inoculation, the plants were put into an appropriate environment to allow infection to take place and then incubated until the disease was ready for assessment. The period between inoculation and assessment varied from four to fourteen days according to the disease and environment. The disease control was recorded by the following grading:- • 4 = no disease • 3 = trace - 5% of disease on untreated plants • 2 = 6-25% of disease on untreated plants • 1 = 26-59% of disease on untreated plants • 0 = 60-100% of disease on untreated plants

[2] = system: CERCOSPORA ARACHIDICOLA (PEANUT); assay: Foliar fungal disease test on plants: Cercospora arachidicola on peanut; conditions: 100 ppm active ingredient spray and root drench approximately 40 ppm a.i./dry soil, one or two days before inoculation
Method: as §1

[3] = system: ERYSIPHE GRAMINIS (BARLEY); assay: Foliar fungal disease test on plants: Erysiphe graminis on barley; conditions: 100 ppm active ingredient spray and root drench approximately 40 ppm a.i./dry soil, plants inoculated 24 hours before treatment
Method: as §1

[4] = system: PUCCINIA RECONDITA (WHEAT); assay: Foliar fungal disease test on plants: Puccinia recondita on wheat; conditions: 100 ppm active ingredient spray and root drench approximately 40 ppm a.i./dry soil, one or two days before inoculation, assessed four to fourteen days after inoculation
Method: as §1

[5] = system: BOTRYTIS CINEREA (GRAPE); assay: Foliar fungal disease test on plants: Botrytis cinerea on grape; conditions: 100 ppm active ingredient, named as an exception to the usual way of application, treatment one or two days before inoculation
Method: as §1, with “For most of the tests the compound was applied to the soil (roots) and to the foliage (by spraying) one or two days before the plant was inoculated with the diseases. An exception was the test on Erysiphe graminis in which the plants were inoculated 24 hours before treatment.” left out, “The period between inoculation and assessment varied from four to fourteen days according to the disease and environment.” left out

OC(Cn1cncn1)(c1ccc(Cl)s1)c1ccc(Cl)cc1Cl (stereo not drawn) [Compound 11A, 1-(1,2,4-Triazol-l-yl)-2-(2,4-dichloroplienyl)-2-(5-chlorothien-2-yl) ethan-2-ol]
disease control grading, VENTURIA INEQUALIS (APPLE) [1]: 4 (4 = no disease) | disease control grading, CERCOSPORA ARACHIDICOLA (PEANUT) [2]: 3 (3 = trace - 5% of disease on untreated plants) | disease control grading, ERYSIPHE GRAMINIS (BARLEY) [3]: 4 (4 = no disease) | disease control grading, PUCCINIA RECONDITA (WHEAT) [4]: 4 (4 = no disease)

OC(Cn1cnnc1)(c1ccc(Cl)s1)c1ccc(Cl)cc1Cl (centres unmarked) [Compound 11B, 1-(1,2,4-Triazol-4-yl)-2-(2,4-dichlorophenyl)-2-(5-chloro-thlen-2-yl) ethan-2-ol]
disease control grading, VENTURIA INEQUALIS (APPLE) [1]: 1 (1 = 26-59% of disease on untreated plants) | disease control grading, BOTRYTIS CINEREA (GRAPE) [5]: 0 (0 = 60-100% of disease on untreated plants) | disease control grading, CERCOSPORA ARACHIDICOLA (PEANUT) [2]: 1 (1 = 26-59% of disease on untreated plants) | disease control grading, ERYSIPHE GRAMINIS (BARLEY) [3]: 4 (4 = no disease) | disease control grading, PUCCINIA RECONDITA (WHEAT) [4]: 4 (4 = no disease)

OC(Cn1cncn1)(c1ccccc1)c1cccs1 (centres unmarked) [Compound 1A, 1-(1,2,4-Triazol-1-yl)-2-phenyl-2-(2-thienyl)ethan-2-ol]
disease control grading, VENTURIA INEQUALIS (APPLE) [1]: 0 (0 = 60-100% of disease on untreated plants) | disease control grading, BOTRYTIS CINEREA (GRAPE) [5]: 0 (0 = 60-100% of disease on untreated plants) | disease control grading, CERCOSPORA ARACHIDICOLA (PEANUT) [2]: 0 (0 = 60-100% of disease on untreated plants) | disease control grading, ERYSIPHE GRAMINIS (BARLEY) [3]: 4 (4 = no disease) | disease control grading, PUCCINIA RECONDITA (WHEAT) [4]: 3 (3 = trace - 5% of disease on untreated plants)
